Literature values, collected in patent US5840756A, “Pharmaceutical composition of L-DOPA ester” (priority 1996, dated 1998).

Columns and labels:
[1] = oral administration; L-DOPA ethyl ester vs L-DOPA
[2] = oral or parenteral route
[3] = not given; remark: listed apart in the source

In the case of `CCOC(=O)[C@@H](N)Cc1ccc(O)c(O)c1` [L-DOPA ethyl ester], the “Time courses of action” value [1] is given as “same time courses of action” and the “Function as a prodrug of levodopa” value [2] is given as “function as a prodrug of levodopa”.

In the case of `N[C@@H](Cc1ccc(O)c(O)c1)C(=O)O` [levodopa], the “Time courses of action” value [1] is given as “same time courses of action”, the “Relief from the `off` state” value (direct instillation of a slurry through a duodenal tube) is given as “rapid relief” and the “Effect of oral dosing with a dilute aqueous solution” value (oral, dilute aqueous solution) is given as “appeared to be effective”. For the same compound, the “Treated patients in whom disabling motor fluctuations appear” value (within five years after initiation, in combination with carbidopa or benserazide) was “about 50%” and the Water solubility [3] was “low water solubility”.
